{"source": "patent US12324927B2", "about": "“Methods and systems for photodynamic therapy calculations” (THE TRUSTEES OF THE UNIVERSITY OF PENNSYLVANIA, priority 2018, dated 2025)", "key": {"[1]": {"test": "Photofrin concentration and PDT dose at pleural cavity sites measured by fluorescence with 4-channel PDT dose dosimeter during Photofrin-mediated pleural PDT", "parameters": "species or system human", "settings": "in vivo, all measurement sites, 630 nm, 60 J cm^−2"}, "[2]": {"tested_on": "radiation-induced fibrosarcoma (RIF) tumors", "test": "Preclinical Photofrin-PDT of RIF tumors: [ROS]rx by ROSED from Oxylite-measured or DCS blood-flow-derived oxygen", "format": "in vivo, mice", "settings": "per mouse; for Initial Photofrin concentration, [PS]: in tumor, 5 mg/kg i.v. 24 h before light, 5 mg/kg; for Calculated [ROS]rx, Measured [^3O2] / Calculated [ROS]rx, DCS blood flow: 75 mW/cm^2, 1800 or 3333 s; for Calculated [ROS]rx, Measured [^3O2]: Oxylite-measured oxygen; for Calculated [ROS]rx, DCS blood flow: blood-flow-derived oxygen", "protocol": "Tumor model and PDT treatment conditions: A preclinical study was conducted using a murine model to investigate the relationship between the dynamics of tumor oxygen and blood flow during PDT. Female C3H mice (Charles River Laboratories, Kingston, NY) between 6 to 8 weeks of age were used in this study. Radiation-induced fibrosarcoma (RIF) tumors were propagated on the shoulders of mice by intradermal injection of 3×10^5 cells. The mice were fed with chlorophyll-free (alfalfa-free) rodent diet (Harlan Laboratories Inc., Indianapolis, Indiana, US) for two weeks prior to treatment to eliminate the fluorescence signal from chlorophyll-breakdown products, which overlap with the emission spectrum of Photofrin fluorescence. PDT was performed when tumors reached ˜4-5 mm in diameter. The treatment area was depilated with Nair (Church & Dwight Co., Inc., Ewing, New Jersey, US) and 5 mg/kg Photofrin was injected via tail vein 24 hours prior to measurements and light delivery. Tissue optical properties and Photofrin fluorescence spectra were obtained using a custom-made multi-fiber contact probe, as described elsewhere (18, 19), before and after PDT. Tissue oxygenation and blood flow changes were monitored continuously during the delivery of PDT using oximeter and DCS as described below. At a 24-h drug-light interval, superficial irradiation of the tumor was performed with a 630-nm laser (Biolitec AG., A-1030, Vienna). A microlens fiber was coupled to the laser to irradiate the tumor uniformly. Animals used in this study were under the care of the University of Pennsylvania Laboratory Animal Resources and the studies were approved by the University of Pennsylvania Institutional Animal Care and Use Committee.\nMeasurement of tumor tissue oxygenation during preclinical PDT: Tumor oxygen was monitored throughout the PDT treatment in mice using an optical oxygen partial pressure (pO2) monitor (OxyLite Pro, Oxford Optronix, Oxford, UK), with a bare-fiber-type probe (NX-BF/O/E, Oxford Optronix, Oxford, UK). The tip of the probe was inserted into the tumor at approximately 1-2 mm depth from the treatment surface to measure the changes in tissue oxygen partial pressure within the tumor mass during PDT. ^3O2 concentration was then approximated by multiplying the measured pO2 with ^3O2 solubility in tissue, which is 1.295 μM/mmHg (20, 21).\nMeasurement of blood flow during preclinical PDT: Tumor blood flow was measured using DCS, an optical technique that measures the rapid speckle intensity fluctuations induced by blood flow. DCS, within a noncontact probe setup, was used to monitor blood flow changes in mice during PDT. A detailed description of the DCS instrument can be found in (22, 23). Briefly, a continuous wave 785-nm laser with long coherence length (CrystaLaser Inc., Reno, NV) delivered light through a source fiber, and the diffuse reflected light was collected using two single mode fibers located 0.3 cm laterally from the source fiber. These fibers were mounted on the imaging plane of a camera with sensor removed. A camera lens was used to focus the laser and to collect diffuse reflected light from the tumor at a fixed distance of 15 cm from the camera lens. This setup permits noncontact blood flow measurements during PDT without obstructing the treatment light. Two single photon counting avalanche photodiodes were used to detect the diffuse light in parallel. Notch filters at 630 nm and a 785 nm bandpass filter were used to prevent the ambient room light and the strong 630-nm treatment laser from saturating the detectors. Tissue blood flow measurements started 5 minutes before the beginning of PDT treatment and lasted until completion of PDT.\nCalculation of [ROS]rx using ROSED: The PDT process is described by a set of kinetic equations which can be simplified to compute the production of [ROS]rx (4, 8, 9, 13). […]"}, "[3]": {"tested_on": "radiation-induced fibrosarcoma (RIF) tumors", "settings": "larger tumors; cited from earlier work"}}, "note": "Values joined by “and” are separate entries in the source; they are usually repeats but may differ in a detail not shown here. Identical values can stand only once. “Also recorded” adds a separate entry of the source."}
{"substance": "Photofrin", "values": [{"measurement": "photobleaching of Photofrin during PDT treatment", "setting": "[1]", "result": "no significant photobleaching; also recorded: did not change significantly; also recorded: negligible photobleaching"}, {"measurement": "Initial Photofrin concentration, [PS]", "setting": "[2]; treatment time 1800 s", "result": "6.9 µM and 6.8 µM and 5.2 µM and 5.7 µM"}, {"measurement": "Initial Photofrin concentration, [PS]", "setting": "[2]; treatment time 3333 s", "result": "6.5 µM and 4.2 µM and 4.5 µM"}, {"measurement": "Calculated [ROS]rx, Measured [^3O2]", "setting": "[2]; treatment time 1800 s", "result": "1.39 mM and 1.24 mM and 1.07 mM and 1.09 mM"}, {"measurement": "Calculated [ROS]rx, Measured [^3O2]", "setting": "[2]; treatment time 3333 s", "result": "2.33 mM and 1.73 mM and 1.89 mM"}, {"measurement": "Calculated [ROS]rx, DCS blood flow", "setting": "[2]; treatment time 1800 s", "result": "1.35 mM and 1.18 mM and 1.12 mM and 0.95 mM"}, {"measurement": "Calculated [ROS]rx, DCS blood flow", "setting": "[2]; treatment time 3333 s", "result": "2.21 mM and 1.92 mM and 1.81 mM"}, {"measurement": "PDT dose threshold from previous study", "setting": "[3]", "result": 1200, "unit": "mM J/cm^2"}]}
